Drawing on ChEMBL document CHEMBL1201862, “PubChem BioAssay data set” (2004), this text covers AC50 and EC50 for 44 compounds.

Active and inactive are the calls of the source.

Usually AC50 stands for the concentration giving half of the maximal activity seen. Usually EC50 stands for the concentration giving half of the maximal effect.

Data set [1] has as its target Cytochrome P450 2D6 (Homo sapiens, UniProt P10635).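 Further: CYP2D6 member of a cytochrome P450 panel assay.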
The target of data set [2] is Cytochrome P450 3A4 (Homo sapiens, UniProt P08684).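 Further: CYP3A4 tested as one member of a cytochrome P450 panel screen.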
Data set [3] deals with T1, Heat shock factor protein 1 (Mus musculus, UniProt P38532).
T1 sequence (P38532 whole entry): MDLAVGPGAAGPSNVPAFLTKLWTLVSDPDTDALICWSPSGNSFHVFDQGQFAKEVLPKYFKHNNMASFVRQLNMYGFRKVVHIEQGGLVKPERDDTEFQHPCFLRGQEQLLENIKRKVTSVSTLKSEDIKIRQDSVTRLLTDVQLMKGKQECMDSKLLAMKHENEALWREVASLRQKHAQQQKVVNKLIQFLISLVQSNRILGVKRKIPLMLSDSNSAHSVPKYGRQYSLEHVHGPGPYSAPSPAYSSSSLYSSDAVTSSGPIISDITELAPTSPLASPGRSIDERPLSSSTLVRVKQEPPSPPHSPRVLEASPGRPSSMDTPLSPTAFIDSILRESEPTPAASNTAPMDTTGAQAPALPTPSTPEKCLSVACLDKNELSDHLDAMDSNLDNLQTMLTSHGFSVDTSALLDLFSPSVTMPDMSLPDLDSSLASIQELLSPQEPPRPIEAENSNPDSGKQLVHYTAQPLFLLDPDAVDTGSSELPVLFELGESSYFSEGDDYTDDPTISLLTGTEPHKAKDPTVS
In words: enhancement of HSF1-driven luciferase signal – cell-based, NIH3T3, luminescence, dose retest, confirmation (AID 435004).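 Further: stress induced by proteasome inhibitor MG132 added 30 min after compound; luciferase reporter driven by HSF1 response element in NIH3T3 cells; actives raise luminescence as potentiators of the MG132 stress response.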 It is filed as functional.

A short description of data set [4]: Luminescence Cell-Based Dose Retest to Confirm Inhibitors of Cancer Stem Cells. [Related pubchem assays (depositor defined):AID2717, AID2721]. The class given is functional. The conditions noted are these: Homo sapiens.
In data set [5] the target is Cytochrome P450 2C19 (Homo sapiens, UniProt P33261). As to the kind of experiment: Cytochrome panel assay with activity outcomes. Panel member name: p450-cyp2c19 Compounds with AC50 equal or less than 10 uM are considered active. The class given is functional.
Data set [6] deals with T1, Heat shock factor protein 1. As to the kind of experiment: decrease of HSF1-responsive luciferase luminescence – cell-based, NIH3T3, dose retest, confirmation (AID 2382).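 Further: NIH3T3 fibroblasts with HSF1-driven luciferase reporter stressed by proteasome inhibitor MG132; luminescence from HSF1-driven luciferase expression after 8 hours of MG132 stress.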 The class given is functional.
For data set [7], the target named is Cytochrome P450 2C9 (Homo sapiens, UniProt P11712).
In data set [8] the test system is Streptococcus sp. 'group A'. As to the kind of experiment: Streptococcus pyogenes SK(-)GAS viability under kanamycin – luminescence, BacTiterGlo, confirmation, counter-screen for streptokinase expression inhibitor project, dose response (AID 1900). It is filed as functional, organism-based. (Counterscreens check selectivity or assay interference.)
For data set [9], the target named is T2, Streptokinase A (Streptococcus pyogenes serotype M1, UniProt P10520).
T2 sequence (P10520 whole entry): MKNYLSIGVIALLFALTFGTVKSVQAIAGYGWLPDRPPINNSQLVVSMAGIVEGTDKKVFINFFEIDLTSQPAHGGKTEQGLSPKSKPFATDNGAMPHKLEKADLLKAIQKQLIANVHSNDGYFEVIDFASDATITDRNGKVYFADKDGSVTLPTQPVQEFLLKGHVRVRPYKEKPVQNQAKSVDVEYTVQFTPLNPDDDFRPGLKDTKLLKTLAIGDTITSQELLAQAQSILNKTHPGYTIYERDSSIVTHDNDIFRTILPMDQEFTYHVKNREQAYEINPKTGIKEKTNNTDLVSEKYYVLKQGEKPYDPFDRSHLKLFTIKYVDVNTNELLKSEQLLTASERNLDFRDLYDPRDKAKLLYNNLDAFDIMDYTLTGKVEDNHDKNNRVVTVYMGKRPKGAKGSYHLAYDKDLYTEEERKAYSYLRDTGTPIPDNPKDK
In words: viability-normalized secreted streptokinase activity reduction – plasminogen activation absorbance, OD405, dose response (AID 1914).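 Further: secreted streptokinase activity via plasminogen activation per viability signal from cell pellet.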 It is filed as functional, Streptococcus pyogenes M1 GAS.

For data set [10], the system named is Streptococcus. In words: GAS UMAA2166 growth inhibition – luminescence, BacTiterGlo, counter-screen for streptokinase expression inhibitor project, dose response (AID 1915).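 Further: potency for reduction of bacterial viability or growth.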 The class given is functional, organism-based.
A short description of data set [11]: reduction of Shn3 3'UTR-driven luciferase in osteoblasts – cell-based, Clone20 osteoblasts, firefly luciferase, cherry-picked, dose response (AID 624132).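 Further: firefly luciferase luminescence from reporter carrying the Shn3 3'UTR in osteoblasts.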 The class given is functional.
Data set [12] is described as follows: non-specific 3'UTR reporter inhibition in Clone20-Shn3RL – cell-based, Renilla luciferase, cherry-picked, counter-screen for Shn3 inhibitor project, dose response (AID 624133). It is filed as functional.
For data set [13], the system named is INS1. As to the kind of experiment: INS-1E survival protection against cytokine death – cell-based, luminescence, retest, dose response (AID 449756).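 Further: cell death triggered by IL-1 beta plus TNF-alpha plus IFN-gamma mixture; protective hits raise ATP signal compared with cytokine alone wells.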 The settings on record: Rattus norvegicus. It is filed as functional.
Data set [14] is described as follows: Trypanosoma cruzi growth suppression in host cells – NIH3T3 host cells, beta-gal luminescence, confirmation (AID 2044).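 Further: intracellular parasites grown in NIH/3T3 mouse fibroblasts as host cells; luminescent beta-galactosidase reporter signal from transgenic T. cruzi replicating inside host cells; inhibitors lower the luminescence signal.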 The class given is functional, cell-based.
Data set [15] can be described thus: NIH3T3 cell viability loss – ATP luminescence, mouse fibroblasts, counter-screen, dose response (AID 2010).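 Further: cells exposed to compound for about 90 hours before reading.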 It is filed as functional, cell-based.
A short description of data set [16]: Luminescence Cell-Based Dose Response HTS to Identify Activators of Luciferase Translation or Activity in H4 […] Cells. [Related pubchem assays: 1829 (Project Summary), 1814 (Primary HTS)]. The class given is functional.
Data set [17] concerns H4. As to the kind of experiment: Luminescence Cell-Based Dose Response HTS to Identify Activators of 5'UTR Stem-Loop Driven Prion Protein mRNA Translation in H4 Neuroglioblastoma Cells. [Related pubchem assays: 1829 (Project Summary), 1814 (Primary HTS)]. The class given is functional. The conditions noted are these: Homo sapiens.

Chain of Cytochrome P450 2D6 (P10635 whole entry): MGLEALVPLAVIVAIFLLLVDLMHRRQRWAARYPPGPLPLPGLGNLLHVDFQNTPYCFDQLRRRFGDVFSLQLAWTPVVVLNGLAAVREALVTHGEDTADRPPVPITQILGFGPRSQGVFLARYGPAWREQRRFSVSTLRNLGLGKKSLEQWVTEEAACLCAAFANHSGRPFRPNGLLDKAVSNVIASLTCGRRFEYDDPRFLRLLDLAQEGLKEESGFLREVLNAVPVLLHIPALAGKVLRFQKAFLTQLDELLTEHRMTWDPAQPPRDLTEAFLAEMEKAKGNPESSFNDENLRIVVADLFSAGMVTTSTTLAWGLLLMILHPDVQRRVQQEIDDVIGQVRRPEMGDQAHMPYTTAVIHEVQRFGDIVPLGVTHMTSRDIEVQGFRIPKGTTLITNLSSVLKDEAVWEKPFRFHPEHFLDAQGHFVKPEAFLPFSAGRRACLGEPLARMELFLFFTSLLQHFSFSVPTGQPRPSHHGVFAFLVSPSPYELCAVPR
Chain of Cytochrome P450 3A4 (P08684 whole entry): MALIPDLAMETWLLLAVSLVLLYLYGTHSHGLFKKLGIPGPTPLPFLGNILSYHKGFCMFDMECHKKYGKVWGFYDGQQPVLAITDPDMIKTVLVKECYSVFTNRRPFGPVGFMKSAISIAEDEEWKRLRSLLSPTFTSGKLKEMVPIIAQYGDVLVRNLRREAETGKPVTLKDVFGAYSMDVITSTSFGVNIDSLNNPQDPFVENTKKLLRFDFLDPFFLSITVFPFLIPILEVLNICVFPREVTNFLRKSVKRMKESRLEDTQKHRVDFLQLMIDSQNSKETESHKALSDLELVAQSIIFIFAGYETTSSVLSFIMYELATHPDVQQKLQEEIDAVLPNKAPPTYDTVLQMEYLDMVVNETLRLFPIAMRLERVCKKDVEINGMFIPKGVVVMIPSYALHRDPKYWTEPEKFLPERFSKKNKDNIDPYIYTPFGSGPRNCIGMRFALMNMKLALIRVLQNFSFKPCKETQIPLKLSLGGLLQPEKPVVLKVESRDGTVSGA
Chain of Cytochrome P450 2C9 (P11712 whole entry): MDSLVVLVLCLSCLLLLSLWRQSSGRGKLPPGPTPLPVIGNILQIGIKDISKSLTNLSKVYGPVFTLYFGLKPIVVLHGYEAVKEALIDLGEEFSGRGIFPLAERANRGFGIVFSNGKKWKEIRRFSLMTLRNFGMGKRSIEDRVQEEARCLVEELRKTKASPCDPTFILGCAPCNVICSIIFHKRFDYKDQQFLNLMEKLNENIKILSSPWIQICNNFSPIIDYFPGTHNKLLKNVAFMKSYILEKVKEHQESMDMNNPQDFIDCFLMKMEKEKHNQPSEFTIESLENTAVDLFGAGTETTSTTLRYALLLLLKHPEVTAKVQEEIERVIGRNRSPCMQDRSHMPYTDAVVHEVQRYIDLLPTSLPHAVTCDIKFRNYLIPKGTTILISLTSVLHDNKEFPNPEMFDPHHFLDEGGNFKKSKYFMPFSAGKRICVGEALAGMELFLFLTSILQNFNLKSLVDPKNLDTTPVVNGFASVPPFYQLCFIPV
Chain of Cytochrome P450 2C19 (P33261 whole entry): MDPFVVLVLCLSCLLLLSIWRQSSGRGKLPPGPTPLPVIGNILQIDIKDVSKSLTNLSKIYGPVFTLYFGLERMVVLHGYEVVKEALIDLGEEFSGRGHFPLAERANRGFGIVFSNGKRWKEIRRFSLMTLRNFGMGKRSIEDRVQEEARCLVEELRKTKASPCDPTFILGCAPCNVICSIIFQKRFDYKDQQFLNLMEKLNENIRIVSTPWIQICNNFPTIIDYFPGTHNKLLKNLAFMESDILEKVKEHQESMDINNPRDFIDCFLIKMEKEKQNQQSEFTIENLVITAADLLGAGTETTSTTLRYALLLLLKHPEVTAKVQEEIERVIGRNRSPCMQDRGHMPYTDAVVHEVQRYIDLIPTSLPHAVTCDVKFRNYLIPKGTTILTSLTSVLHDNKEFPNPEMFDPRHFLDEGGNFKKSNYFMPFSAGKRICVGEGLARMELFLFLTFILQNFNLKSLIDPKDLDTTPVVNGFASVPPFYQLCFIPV

With `CC(C)CN1CCCC2(CCN(C(=O)c3cccc(F)c3)CC2)C1`, the AC50 in data set [1] was 12.6 µM (inconclusive); in [2] it was 25.1 µM (inconclusive).

As for `O=C(c1ccc2nccnc2c1)N1CCCC(Nc2ccc(F)c(F)c2)C1` (stereo unspecified), the EC50 in data set [3] is > 260 µM (inactive).

For `COc1ccc(-c2noc3c2-c2nc(-c4ccccc4C)sc2CC3)cc1`, the AC50 in data set [4] is 0.689 µM (active).

Take `COc1cc(/C=N/NC(=S)NC2CC3C=CC2C3)cc(OC)c1OC` (stereo unspecified): in data set [3], the EC50 was > 260 µM (inactive).

As to `C[N+]1(C)CCC[C@@H](OC(=O)C(O)(c2ccccc2)c2ccccc2)C1`, the AC50 result in data set [5] was “inconclusive”; in data set [1], 10 µM (inconclusive).

Take `O=C(COC(=O)CNC(=O)c1ccccc1F)Nc1cccnc1Cl`: the EC50 in data set [6] was > 195 µM (not active).

As for `CCCc1nc(NC2CCCCC2)c(C#N)c2c1COC(C)(C)C2`, the AC50 in data set [4] was 6.71 µM (active).

Regarding `Cc1ccccc1-n1c(C)nc2ccccc21`, the EC50 in [6] is > 195 µM (not active).

With `O=[N+]([O-])c1cccc(-c2nnc(CNC3CC3)o2)c1`, in [3], the EC50 was > 260 µM (inactive).

With `CCC(C(=O)OCC(=O)Nc1cc(Cl)ccc1Cl)c1ccccc1` (stereo unspecified), the EC50 in data set [6] is > 195 µM (not active).

`COc1ccc(C(=O)c2coc3ccc(O)c(CN(C)C)c23)cc1`: the EC50 in data set [3] is > 260 µM (inactive).

Consider `Cn1c(CO)cnc1SCC(=O)c1ccc(Cl)cc1`, for which the EC50 in data set [3] was > 260 µM (inactive).

For the compound `O=C(c1cnccn1)N1CCC2(CCCN(c3ccccn3)C2)CC1`, the AC50 in data set [1] is 20 µM (inconclusive); in [2] it was 7.94 µM (inconclusive).

On to `COc1ccc(NC(=O)c2nn(C)c(=O)c3ccccc23)cc1S(=O)(=O)Nc1ccccc1Cl`, for which the concentration for a half-maximal effect (EC50) in data set [3] is 18.4 µM (active).

With `COc1ncc2nc(-c3ccc(Cl)cc3)c(=O)n(Cc3cccs3)c2n1`, the AC50 was 2.51 µM (inconclusive) in data set [1] and 15.8 µM (inconclusive) in data set [7].

For the compound `Cc1ccc(CN2CN(S(=O)(=O)c3cccs3)c3nc4ccccc4nc32)cc1`, the EC50 in data set [8] was 56 µM (active); in data set [9], > 150 µM (not active); in [10] it was 63.7 µM (active).

For `CCCOc1ccc(C(=O)NNC(=S)NC(=O)c2ccccc2[N+](=O)[O-])cc1`, the results for the EC50 in data set [8], in data set [9] and in [10] were 2.79 µM (active), > 150 µM (not active) and 10.8 µM (active), respectively.

As for `CC(=O)Oc1ccc(-c2ccc(C(=O)Nc3cccc(S(=O)(=O)N4CCOCC4)c3)cc2)cc1`, the AC50 in data set [4] is 1.52 µM (active).

As to `Cc1ccc(N2C(=O)NC(NS(=O)(=O)c3ccccc3)(C(F)(F)F)C2=O)cc1` (stereo unspecified), in [6], the EC50 is > 195 µM (not active).

For the compound `CCOC(=O)c1c(-c2ccccc2)nc2c(C)cccn12`, the results for the AC50 in data set [1] and in [2] were 0.00562 µM (inconclusive) and 14.1 µM (inconclusive), respectively.

For the compound `CN(Cc1ccc(N(C)C)cc1)C(=O)c1cc2ccccc2o1`, the EC50 in data set [8], in data set [9] and in data set [10] was > 150 µM (not active) each time.

`COC(=O)C1=C(c2ccc(OCc3ccccc3)cc2)C[C@@H]2CC[C@H]1N2C(=O)NCc1ccc(OC)c(OC)c1`: the AC50 in [11] was 19.7 µM (active); in data set [12] it was 30.1 µM (active).

For `Nc1cc(-c2ccco2)no1`, the concentration giving a half-maximal response (EC50) in data set [3] was 60.4 µM (active).

On to `COC(=O)c1ccc(CNC(=O)COC(=O)COc2ccc(OC)cc2)cc1`, for which the EC50 in data set [6] is reported as > 195 µM (not active).

`Cc1nc(C(=O)NNC(=O)c2cccc(Cl)c2)c(C(F)(F)F)o1`: in [6], the EC50 was > 195 µM (not active).

`NC(=O)CN1CCCC1=O`: in data set [6], the EC50 is on record as > 195 µM (not active).

Take `CCc1cccc(NC(=O)c2cccc(S(=O)(=O)N3CCN(C)CC3)c2)c1`: in data set [3], the EC50 is > 260 µM (inactive).

As for `C(=C\c1nc(N2CCCCCC2)c2ccccc2n1)/c1ccccc1`, the AC50 in data set [4] is 3.73 µM (active); in data set [13], 6.21 µM (active).

Regarding `CNC(=O)/C(C#N)=C\c1cc(C)n(-c2ccc(N3CCOCC3)cc2)c1C`, the EC50 is 30.4 µM (active) in [8], > 150 µM (not active) in data set [9] and 98.2 µM (active) in [10].

`Cc1ccc(NC(=O)Cn2c(CCC(=O)O)ccc2-c2cccs2)cc1`: the EC50 in data set [3] was > 260 µM (inactive).

Turning to `COc1ccc(S(=O)(=O)N2CCOC2CNC(=O)C(=O)NCc2ccccc2Cl)cc1` (stereo unspecified), the EC50 in data set [8], in [9] and in [10] was > 150 µM (not active) in each case.

Regarding `Cc1cccc(NC2(C(F)(F)F)N=C(c3ccccc3)NC2=O)n1` (stereo unspecified), the EC50 in data set [6] is 71.7 µM (active). The AC50 in [5] (read-out: AC50) is 8.91 µM (inconclusive); in data set [2], 15.8 µM (inconclusive); in data set [7], 12.6 µM (inconclusive).

Turning to `O=C(CCc1nnc(Cc2ccc(-c3ccccc3)cc2)o1)N1CCCC1`, the EC50 in [3] was > 260 µM (inactive).

On to `O=S(=O)(NCc1cc(-c2ccccc2)no1)c1ccc(Cl)cc1`, for which the AC50 in data set [1] was 20 µM (inconclusive); in data set [2], 25.1 µM (inconclusive).

On to `COc1ccc(O)c(CN2CCC(n3nccc3NC(=O)CCOc3ccccc3)CC2)c1`, for which the EC50 in data set [8], in [9] and in data set [10] was > 150 µM (not active) each time.

Turning to `CCN(CC)CCN(C(=O)CCS(=O)(=O)c1ccccc1)c1nc2cc(C)cc(C)c2s1`, the EC50 in data set [8] is > 150 µM (not active); in data set [9], > 150 µM (not active); in data set [14] it was 0.697 µM (active); in [15] it was > 30 µM (not active); in [10], > 150 µM (not active).

In the case of `COCCCN1C(=O)c2[nH]nc(-c3ccccc3O)c2C1c1cccc(Cl)c1` (stereo unspecified), the EC50 in data set [3] was 59.7 µM (active).

`Cc1csc(NC(=O)Nc2ccccc2[N+](=O)[O-])n1`: the figures for the EC50 in data set [16] and in data set [17] were 12.5 µM (active) and 94 µM (active), respectively.

As to `COc1ccc2c(c[n+](C)c3c4cc5c(cc4ccc23)OCO5)c1OC` [CHELERYTHRINE], the AC50 in [1] was 25.1 µM (inconclusive); in data set [2] it was 31.6 µM (inconclusive); in data set [7] it was 39.8 µM (inconclusive).

Regarding `CC1CC1C(=O)OCC(=O)NCc1ccc(Cl)cc1Cl` (stereo unspecified), the EC50 in [6] is > 195 µM (not active).

Turning to `CC(=O)OC(C)C(=O)NS(=O)(=O)c1ccc(C)cc1` (stereo unspecified), in data set [3], the EC50 is > 260 µM (inactive).

Take `O=C(CN1CCCCCC1)Nc1ccccc1Oc1ccccc1`: the AC50 in [4] is 0.493 µM (active).

`CCN(CC)C(S)=Nc1ccc(Cl)c(Cl)c1`: in data set [3], the EC50 was > 260 µM (inactive).

For `O=C(Cc1ccccc1)NCCS(=O)(=O)N1CCN(c2ccccc2)CC1`, the EC50 in [8], in data set [9] and in data set [10] was > 150 µM (not active) each time.
